Read-outs that look alike come from different tables or passages of the source.
Assays:
Format in all cases: cell-based
[1] = biological target: T1, hGLP-1R (Homo sapiens, UniProt P43220); assay: Functional cAMP activation in the presence of 0.1% casein (no HSA); details: read-out: Relative cAMP EC50, hGLP-1R;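 further: intracellular cAMP rise after 30 min at 37 °C read by HTRF, normalized between buffer only (0%) and maximal control ligand (100%), four-parameter variable-slope fit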
[2] = biological target: T2, hGIPR (Homo sapiens, UniProt P48546); assay: as above; details: read-out: Relative cAMP EC50, hGIPR;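 further: intracellular cAMP rise after 30 min at 37 °C read by HTRF against a standard curve, scaled between buffer alone (0%) and top control ligand concentration (100%), four-parameter fit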
T2 sequence (P48546 22-466): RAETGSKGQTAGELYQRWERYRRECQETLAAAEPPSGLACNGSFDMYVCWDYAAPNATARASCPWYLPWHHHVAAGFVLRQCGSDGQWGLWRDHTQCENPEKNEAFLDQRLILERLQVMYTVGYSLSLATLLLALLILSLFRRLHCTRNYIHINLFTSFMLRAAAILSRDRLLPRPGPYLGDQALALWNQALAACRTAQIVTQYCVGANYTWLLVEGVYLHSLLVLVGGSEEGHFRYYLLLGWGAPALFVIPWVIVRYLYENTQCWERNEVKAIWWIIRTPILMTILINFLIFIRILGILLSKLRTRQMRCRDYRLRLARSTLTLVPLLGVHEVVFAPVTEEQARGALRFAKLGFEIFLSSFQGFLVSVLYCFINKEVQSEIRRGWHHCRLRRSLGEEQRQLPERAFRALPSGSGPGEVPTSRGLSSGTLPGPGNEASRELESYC

[3] = biological target: hGcgR (Homo sapiens, UniProt P47871); assay: as above; details: read-out: Relative cAMP EC50, hGcgR;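 further: intracellular cAMP rise after 30 min at 37 °C, read by HTRF against a cAMP standard curve, scaled from buffer only (0%) to maximal control ligand response (100%)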
[4] = biological target: T2, hGIPR; assay: Functional cAMP activity in the presence of 1% HSA; details: read-out: cAMP Rel EC50, hGIPR
[5] = biological target: T1, hGLP-1R; assay: Functional cAMP activity in the presence of 1% HSA; details: read-out: cAMP Rel EC50, hGLP-1R
[6] = biological target: human GcgR (Homo sapiens, UniProt P47871); assay: Functional cAMP activity in the presence of 1% HSA; details: read-out: cAMP Rel EC50, hGcgR
[7] = in the presence of 0.1% casein (no HSA), geometric mean of relative EC50
[8] = HEK-293 clonal cell line, 1% HSA, geometric mean of relative EC50

T1 sequence (P43220 24-463): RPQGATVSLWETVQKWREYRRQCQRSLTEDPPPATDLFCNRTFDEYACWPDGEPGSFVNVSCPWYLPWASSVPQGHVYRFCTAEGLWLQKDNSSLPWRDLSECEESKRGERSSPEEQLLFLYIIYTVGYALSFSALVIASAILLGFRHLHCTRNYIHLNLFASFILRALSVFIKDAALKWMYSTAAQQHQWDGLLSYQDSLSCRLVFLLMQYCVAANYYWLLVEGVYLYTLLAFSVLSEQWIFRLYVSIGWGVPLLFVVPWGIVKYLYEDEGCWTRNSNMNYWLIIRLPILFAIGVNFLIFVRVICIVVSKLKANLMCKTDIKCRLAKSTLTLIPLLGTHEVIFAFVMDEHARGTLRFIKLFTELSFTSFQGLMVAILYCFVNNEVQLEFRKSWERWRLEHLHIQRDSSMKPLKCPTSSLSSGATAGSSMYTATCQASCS
Chain of human GcgR (P47871 26-477): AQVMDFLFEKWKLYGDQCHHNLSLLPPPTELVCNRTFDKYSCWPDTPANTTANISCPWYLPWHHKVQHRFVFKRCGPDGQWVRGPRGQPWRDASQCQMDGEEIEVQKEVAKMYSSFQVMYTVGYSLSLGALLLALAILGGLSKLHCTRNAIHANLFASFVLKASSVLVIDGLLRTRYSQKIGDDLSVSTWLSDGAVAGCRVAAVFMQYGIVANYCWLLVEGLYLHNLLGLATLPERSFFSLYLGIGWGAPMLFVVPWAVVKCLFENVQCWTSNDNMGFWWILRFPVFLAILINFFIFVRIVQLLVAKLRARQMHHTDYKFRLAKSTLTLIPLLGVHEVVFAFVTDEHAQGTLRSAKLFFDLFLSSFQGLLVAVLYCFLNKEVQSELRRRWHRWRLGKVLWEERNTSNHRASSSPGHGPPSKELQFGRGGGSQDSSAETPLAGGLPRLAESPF
Chain of hGcgR (P47871 26-477): as above

Row | SMILES | EC50 [1] [nM] | EC50 [2] [nM] | EC50 [3] [nM] | EC50 [4] [nM] | EC50 [5] [nM] | EC50 [6] [nM] | EC50 [1, 7] [nM] | EC50 [2, 7] [nM] | EC50 [3, 7] [nM] | EC50 [4, 8] [nM] | EC50 [5, 8] [nM] | EC50 [6, 8] [nM]
1 | CC[C@H](C)[C@H](NC(=O)[C@H](Cc1ccccc1)NC(=O)[C@H](CCCN)NC(=O)C(C)(C)NC(=O)[C@H](CCC(N)=O)NC(=O)[C@H](C)NC(=O)[C@H](CCCCNC(=O)[C@H](CCC(=O)O)NC(=O)CC[C@H](NC(=O)CCCCCCCCCCCCCCCCC(=O)O)C(=O)O)NC(=O)[C@H](CCCN)NC(=O)[C@H](CC(=O)O)NC(=O)[C@H](CC(C)C)NC(=O)[C@](C)(CC(C)C)NC(=O)[C@@H](NC(=O)[C@](C)(CO)NC(=O)[C@H](Cc1ccncc1)NC(=O)[C@H](CC(=O)O)NC(=O)[C@H](CO)NC(=O)[C@@H](NC(=O)[C@](C)(Cc1ccccc1F)NC(=O)[C@@H](NC(=O)CNC(=O)[C@H](CCC(N)=O)NC(=O)C(C)(C)NC(=O)[C@@H](N)Cc1ccc(O)cc1)[C@@H](C)O)[C@@H](C)O)[C@@H](C)CC)C(=O)N[C@H](CCC(=O)O)C(=O)N[C@@](C)(Cc1ccc(O)cc1)C(=O)N[C@@H](CC(C)C)C(=O)N[C@@H](CCC(N)=O)C(=O)N[C@@H](CCC(=O)O)C(=O)NCC(=O)NCC(=O)N1CCC[C@H]1C(=O)N[C@@H](CO)C(=O)N[C@@H](CO)C(=O)NCC(=O)N[C@@H](CCC(=O)O)C(=O)N1CCC[C@H]1C(=O)N1CCC[C@H]1C(=O)N1CCC[C@H]1C(=O)N[C@@H](CCC(=O)O)C(=O)NCC(=O)N[C@H](C(=O)N[C@@H](CCC(=O)O)C(=O)N[C@@H](CCC(=O)O)C(N)=O)[C@@H](C)O [Example 593] | 0.495 | 0.0484 | 6.57 | 2.71 | 35.3 | 591 |  |  |  |  |  | 
2 | CC[C@H](C)[C@H](NC(=O)[C@H](Cc1ccccc1)NC(=O)[C@H](CCCN)NC(=O)C(C)(C)NC(=O)[C@H](CCC(N)=O)NC(=O)[C@H](C)NC(=O)[C@H](CCCCNC(=O)[C@H](CCC(=O)O)NC(=O)CC[C@H](NC(=O)CCCCCCCCCCCCCCCCC(=O)O)C(=O)O)NC(=O)[C@H](CCCN)NC(=O)[C@H](CC(=O)O)NC(=O)[C@H](CC(C)C)NC(=O)[C@](C)(CC(C)C)NC(=O)[C@@H](NC(=O)[C@](C)(CO)NC(=O)[C@H](Cc1ccncc1)NC(=O)[C@H](CC(=O)O)NC(=O)[C@H](CO)NC(=O)[C@@H](NC(=O)[C@](C)(Cc1ccccc1F)NC(=O)[C@@H](NC(=O)CNC(=O)[C@H](CCC(N)=O)NC(=O)C(C)(C)NC(=O)[C@@H](N)Cc1ccc(O)cc1)[C@@H](C)O)[C@@H](C)O)[C@@H](C)CC)C(=O)N[C@H](CCC(=O)O)C(=O)N[C@@](C)(Cc1ccc(O)cc1)C(=O)N[C@@H](CC(C)C)C(=O)N[C@@H](CCC(N)=O)C(=O)N[C@@H](CCC(=O)O)C(=O)NCC(=O)NCC(=O)N1CCC[C@H]1C(=O)N[C@@H](CO)C(=O)N[C@@H](CO)C(=O)NCC(=O)N[C@@H](CCC(=O)O)C(=O)N1CCC[C@H]1C(=O)N1CCC[C@H]1C(=O)N1CCC[C@H]1C(=O)N[C@@H](CCC(=O)O)C(=O)NCC(=O)N[C@H](C(=O)N[C@@H](CCC(=O)O)C(=O)N[C@@H](CCC(=O)O)C(=O)N[C@@H](CCC(=O)O)C(N)=O)[C@@H](C)O [Example 594] | 0.561 | 0.0541 | 8.35 | 3.32 | 49.1 | 570 |  |  |  |  |  | 
3 | CC[C@H](C)[C@H](NC(=O)[C@H](Cc1ccccc1)NC(=O)[C@H](CCCN)NC(=O)C(C)(C)NC(=O)[C@H](CCC(N)=O)NC(=O)[C@H](C)NC(=O)[C@H](CCCCNC(=O)[C@@H](CCC(=O)O)NC(=O)CC[C@H](NC(=O)CCCCCCCCCCCCCCCCC(=O)O)C(=O)O)NC(=O)[C@H](CCCN)NC(=O)[C@H](CC(=O)O)NC(=O)[C@H](CC(C)C)NC(=O)[C@](C)(CC(C)C)NC(=O)[C@@H](NC(=O)[C@](C)(CO)NC(=O)[C@H](Cc1ccncc1)NC(=O)[C@H](CC(=O)O)NC(=O)[C@H](CO)NC(=O)[C@@H](NC(=O)[C@](C)(Cc1ccccc1F)NC(=O)[C@@H](NC(=O)CNC(=O)[C@H](CCC(N)=O)NC(=O)C(C)(C)NC(=O)[C@@H](N)Cc1ccc(O)cc1)[C@@H](C)O)[C@@H](C)O)[C@@H](C)CC)C(=O)N[C@H](CCC(=O)O)C(=O)N[C@@](C)(Cc1ccc(O)cc1)C(=O)N[C@@H](CC(C)C)C(=O)N[C@@H](CCC(N)=O)C(=O)N[C@@H](CCC(=O)O)C(=O)NCC(=O)NCC(=O)N1CCC[C@H]1C(=O)N[C@@H](CO)C(=O)N[C@@H](CO)C(=O)NCC(=O)N[C@@H](CCC(=O)O)C(=O)N1CCC[C@H]1C(=O)N1CCC[C@H]1C(=O)N1CCC[C@H]1C(=O)N[C@@H](CCC(=O)O)C(=O)NCC(=O)N[C@H](C(=O)N[C@@H](CCC(=O)O)C(=O)N[C@@H](CCC(=O)O)C(=O)N[C@@H](CCC(=O)O)C(N)=O)[C@@H](C)O [Example 596] | 0.592 | 0.0455 | 5.71 | 1.98 | 36.6 | 385 |  |  |  |  |  | 
4 | CC[C@H](C)[C@H](NC(=O)[C@H](Cc1ccccc1)NC(=O)[C@H](CCCN)NC(=O)C(C)(C)NC(=O)[C@H](CCC(N)=O)NC(=O)[C@H](C)NC(=O)[C@H](CCCCNC(=O)CC[C@H](NC(=O)CNC(=O)CCCCCCCCCCCCCCCCC(=O)O)C(=O)O)NC(=O)[C@H](CCCN)NC(=O)[C@H](CC(=O)O)NC(=O)[C@H](CC(C)C)NC(=O)[C@](C)(CC(C)C)NC(=O)[C@@H](NC(=O)[C@](C)(CO)NC(=O)[C@H](Cc1ccncc1)NC(=O)[C@H](CC(=O)O)NC(=O)[C@H](CO)NC(=O)[C@@H](NC(=O)[C@](C)(Cc1ccccc1F)NC(=O)[C@@H](NC(=O)CNC(=O)[C@H](CCC(N)=O)NC(=O)C(C)(C)NC(=O)[C@@H](N)Cc1ccc(O)cc1)[C@@H](C)O)[C@@H](C)O)[C@@H](C)CC)C(=O)N[C@H](CCC(=O)O)C(=O)N[C@@](C)(Cc1ccc(O)cc1)C(=O)N[C@@H](CC(C)C)C(=O)N[C@@H](CCC(N)=O)C(=O)N[C@@H](CCC(=O)O)C(=O)NCC(=O)NCC(=O)N1CCC[C@H]1C(=O)N[C@@H](CO)C(=O)N[C@@H](CO)C(=O)NCC(=O)N[C@@H](CCC(=O)O)C(=O)N1CCC[C@H]1C(=O)N1CCC[C@H]1C(=O)N1CCC[C@H]1C(=O)N[C@@H](CCC(=O)O)C(=O)NCC(=O)N[C@H](C(=O)N[C@@H](CCC(=O)O)C(=O)N[C@@H](CCC(=O)O)C(N)=O)[C@@H](C)O [Example 658] |  |  |  |  |  |  | 0.34 | 0.0379 | 1.05 | 12 | 106 | 376
5 | CC[C@H](C)[C@H](NC(=O)[C@H](Cc1ccccc1)NC(=O)[C@H](C)NC(=O)C(C)(C)NC(=O)[C@H](CCC(N)=O)NC(=O)[C@H](C)NC(=O)[C@H](CCCCNC(=O)CC[C@H](NC(=O)CC[C@H](NC(=O)CCCCCCCCCCCCCCCCC(=O)O)C(=O)O)C(=O)O)NC(=O)[C@H](CCCCN)NC(=O)[C@H](CC(=O)O)NC(=O)[C@H](CC(C)C)NC(=O)[C@H](CC(C)C)NC(=O)[C@@H](NC(=O)[C@H](CO)NC(=O)[C@H](Cc1ccncc1)NC(=O)[C@H](CC(=O)O)NC(=O)[C@H](CO)NC(=O)[C@@H](NC(=O)[C@](C)(Cc1ccccc1F)NC(=O)[C@@H](NC(=O)CNC(=O)[C@H](CCC(N)=O)NC(=O)C(C)(C)NC(=O)[C@@H](N)Cc1ccc(O)cc1)[C@@H](C)O)[C@@H](C)O)[C@@H](C)CC)C(=O)N[C@@H](CCC(=O)O)C(=O)N[C@@H](Cc1ccc(O)cc1)C(=O)N[C@@H](CC(C)C)C(=O)N[C@@H](CCC(=O)O)C(=O)N[C@@H](CCC(=O)O)C(=O)NCC(=O)NCC(=O)N1CCC[C@H]1C(=O)N[C@@H](CO)C(=O)N[C@@H](CO)C(=O)NCC(=O)N[C@@H](C)C(=O)N1CCC[C@H]1C(=O)N1CCC[C@H]1C(=O)N1CCC[C@H]1C(=O)N[C@@H](CCC(=O)O)C(=O)NCC(=O)N[C@H](C(=O)NCC(=O)N[C@@H](CCC(=O)O)C(N)=O)[C@@H](C)O [Example 660] | 1.27 | 0.0646 | 7.38 | 4.64 | 76.9 | 455 |  |  |  |  |  | 
